Measured values: patent publication US6620819B2, “Anticonvulsant derivatives useful in treating psychosis” (Ortho-McNeil Pharmaceutical, Inc., priority 1999, dated 2003)

Key:
[1] = tested on: behavioral agitation in dementia; settings: some patients with dementia; cited from earlier work
[2] = tested on: patients with psychosis, not otherwise specified; experiment: retrospective chart review of open label add-on topiramate, psychosis patients; type: in vivo, human; settings: both psychosis inpatients; daily mean dose 260 mg, duration 10.7 weeks; added to existing pharmacotherapy, several on risperidone
Protocol: (§1) A retrospective analysis of patients treated in an open label manner with topiramate for dementia and/or behavioral and psychotic disturbances in dementia was performed.
(§2) The charts of 58 consecutive patients with diagnosed psychiatric disorders refractory to conventional mood stabilizers who were treated with topiramate were selected for retrospective review. Topiramate 25 mg BID was added to existing pharmacotherapy on an open label basis. It was titrated upward in 50 mg (25 mg bid) increments every seven days until improvement occurred or a total dosage of 400 mg per day was reached. Charts were retrospectively reviewed for the following data: demographic information, psychiatric diagnosis and duration of illness, general medical history, daily dose of topiramate and regimen, duration of topiramate therapy, reason for discontinuation of topiramate therapy, previous therapy, concurrent medications, adverse events and evaluation of response to topiramate.
(§3) Results were analyzed using descriptive statistics. When possible, results are expressed as means with standard deviation (SD). […] Improvement was investigator rated and included a qualitative assessment of changes in sleep, appetite, mood and concentration during therapy. Adverse events reported by the patients were recorded during therapy and assessed for their relationship to study therapy. […]

[3] = tested on: simple and complex partial seizures and secondarily generalized seizures; settings: adjunctive therapy or monotherapy, clinical trials; cited from earlier work
[4] = tested on: patients with dementia; experiment: retrospective chart review of open label add-on topiramate, dementia patients; type: in vivo, human; settings: all three dementia inpatients; daily mean dose 210 mg, duration 11.7 weeks; added to existing pharmacotherapy, several on risperidone
Protocol: as §1, §2, §3

[5] = tested on: seizures in several rodent models of epilepsy; settings: cited from earlier work
[6] = tested on: kindled epilepsy; settings: animal model of kindled epilepsy; cited from earlier work

| SMILES | control of behavioral agitation [1] | investigator rated response (Likert scale worse / no change / minimally improved / markedly improved) [2] | efficacy in treating simple and complex partial seizures and secondarily generalized seizures [3] | investigator rated response (Likert scale worse / no change / minimally improved / markedly improved) [4] | block of seizures [5] | block of seizures [6] |
| --- | --- | --- | --- | --- | --- | --- |
| NC(=O)N1c2ccccc2C=Cc2ccccc21 [carbamazepine] | efficacious |  |  |  |  |  |
| CCCC(CCC)C(=O)O [divalproex sodium] | efficacious |  |  |  |  |  |
| CC1(C)O[C@@H]2[C@@H](CO[C@@]3(COS(N)(=O)=O)OC(C)(C)O[C@@H]23)O1 [topiramate, 2,3:4,5-bis-O-(1-methylethylidene)-β-D-fructopyranose sulfamate] |  | marked or moderate improvement | effective | marked or moderate improvement | effectively block seizures | effectively block seizures |
